Data on one compound can be found in patent US20240409886A1, “CULTURE MEDIUM COMPRISING DIPEPTIDES” (Evonik Operations GmbH, priority 2017, published 2024).

Residues, ends and D or L forms follow the SMILES beside them.

Assay [1] concerns antibody-producing Chinese Hamster Ovary (CHO) cell (subclone DG44). Nature of the assay: product titer (antibody concentration at the end of the cultivation). The class given is cell-based. To be noted: for rel. product titer [-]: end of cultivation, t=18h, relative units. As for the experimental part:
The effect of the Gln-Asn dipeptide on an antibody-producing Chinese Hamster Ovary (CHO) cell (subclone DG44; Life Technologies Corporation, Carlsbad, USA) was investigated using one-factor-at-a-time (OFAT) analysis.
The analysis was based on a comparison of the viable cell density and cell viability in a series of cell cultures, which were conducted at substantially identical culturing conditions, however, with increasing amounts of the Gln-Asn dipeptide in the medium. In order to keep the total amounts of Asn and Gln units (molar basis) in the various culture media constant, the molar concentration of free glutamine and free asparagine was reduced in accordance with the molar amount of the dipeptide added. A series of culture media having increasing amounts of the Gln-Asn dipeptide was prepared by mixing varying amounts of a Base Medium (comprising free Asn and Gln) and a Test Medium (comprising Asn-Gln dipeptide). A commercially available defined cell culture medium (TC-42, TeutoCell AG, Bielefeld, Germany) served as the Base Medium. (Any other suitable cell culture medium could be used.) A Test Medium (TC-42-EVO) was prepared so as to have identical nutrient concentrations compared to the Base Medium, however, instead of free Asn the Test Medium contained an equimolar amount (5.4 mM) of Gin-Asn dipeptide. Furthermore, the free Gln concentration in the Test Medium was set to a value such that the total concentration of Gln units in the Test Medium (i.e., free Gln and dipeptide-Gln) matched the concentration of free Gln in the Base Medium. All other nutrient concentrations in the Test Medium were the same as in the Base Medium. The Base Medium contained 1461.5 mg/l free Gln and 612 mg/l free Asn.
Six cell cultivations were then conducted with media containing varying amounts of the Test Medium and the Base Medium in the following proportions:
All media were set to pH 8.3. Salinity of the culture media was set to 285 mOsmol/kg with NaCl. All cultivations were conducted in on a rotary shaker under identical culture conditions (temperature, humidity, rpm, CO2, etc.), using standard cell culture methods. Three passages of a cell culture are conducted and viable cell density (VCD; 10^6 viable cells/ml) and cell viability (%) was followed in duplicate determinations, using […] determination.
Generally, an increased product titer is observed in all cultures including the Asn-containing dipeptide. In cultivations #2 and #3 (80% and 25% of the Asn present in form of the dipeptide, respectively) the product titer is more than 1.4-fold increased.

The test system is the same in assay [2].
Protocol: The analysis was based on a comparison of the viable cell density and cell viability in a series of cell cultures, which were conducted at substantially identical culturing conditions, however, with increasing amounts of the Gln-Asn dipeptide in the medium. In order to keep the total amounts of Asn and Gln units (molar basis) in the various culture media constant, the molar concentration of free glutamine and free asparagine was reduced in accordance with the molar amount of the dipeptide added. A series of culture media having increasing amounts of the Gln-Asn dipeptide was prepared by mixing varying amounts of a Base Medium (comprising free Asn and Gln) and a Test Medium (comprising Asn-Gln dipeptide). A commercially available defined cell culture medium (TC-42, TeutoCell AG, Bielefeld, Germany) served as the Base Medium. […] Furthermore, the free Gln concentration in the Test Medium was set to a value such that the total concentration of Gln units in the Test Medium (i.e., free Gln and dipeptide-Gln) matched the concentration of free Gln in the Base Medium. All other nutrient concentrations in the Test Medium were the same as in the Base Medium. […]

In the case of `NC(=O)CC[C@H](N)C(=O)N[C@@H](CC(N)=O)C(=O)O` [Gln-Asn, L-glutaminyl-L-asparagine] (H-Gln-Asn-OH), the “rel. product titer [-]” value in assay [1] (0.3 mM dipeptide (#5)) was 1.01; in assay [1] (0.8 mM dipeptide (#4)), 1.11; in assay [1] (1.4 mM dipeptide (#3)), 1.42; in assay [1] (4.3 mM dipeptide (#2)), 1.41; in assay [1] (5.4 mM dipeptide (#1)), 1.19. In addition, the product titer increase result in assay [1] (cultivation #2, 80% of the Asn present in form of the dipeptide) is given as “more than 1.4 fold”; in assay [1] (cultivation #3, 25% of the Asn present in form of the dipeptide), “more than 1.4 fold”. Also, the product titer result in assay [1] (cultivations #1-#4, dipeptide 0.8 mM to 5.4 mM) is “Significantly improved”. Further, the “cell viability at day 18” value in assay [2] (high concentrations of the dipeptide (cultivations #1, #2, #3)) was “relatively high viability”. Further, in assay [2] (lower concentration of the dipeptide (cultivations #4, #5)), the “cell viability at the end of experiment” value is recorded as “significantly reduced cell viability”.
